One molecule from ChEMBL document CHEMBL3872220, “Amphiphilic xanthones as a potent chemical entity of anti-mycobacterial agents with membrane-targeting properties” (Eur J Med Chem, 2016) can be followed below.

SMILES strings stand for the structures.

The subject of one assay is Mycobacterium tuberculosis variant bovis. Description: Antimycobacterial activity against Mycobacterium bovis BCG ATCC 35734 assessed as ATP leakage by measuring extracellular ATP at 2 times MIC measured at 1 hr post dose by luciferase reporter gene assay. Format: functional, Mycobacterium tuberculosis variant bovis BCG.
As for `COc1c(OCCCCN2CCOCC2)cc2oc3cc(OCCCCN4CCOCC4)c(CC=C(C)C)c(O)c3c(=O)c2c1CC=C(C)C`, the Activity stood at 16.7%.

A further assay shares this test system. In words: Antimycobacterial activity against Mycobacterium bovis BCG ATCC 35734 assessed as ATP leakage by measuring intracellular ATP at 4 times MIC measured at 3 hrs post dose by luciferase reporter gene assay. The class given is functional, Mycobacterium tuberculosis variant bovis BCG. (In general: Reporter assays use an easily measured gene product as a stand-in for the process of interest.)
On to `COc1c(OCCCCN2CCOCC2)cc2oc3cc(OCCCCN4CCOCC4)c(CC=C(C)C)c(O)c3c(=O)c2c1CC=C(C)C`, for which the Activity was 66.6%.

The test system is the same in the next assay. In words: Antimycobacterial activity against Mycobacterium bovis BCG ATCC 35734 assessed as ATP leakage by measuring intracellular ATP at 0.5 times MIC measured at 6 hrs post dose by luciferase reporter gene assay. Format: functional, Mycobacterium tuberculosis variant bovis BCG.
For the molecule `COc1c(OCCCCN2CCOCC2)cc2oc3cc(OCCCCN4CCOCC4)c(CC=C(C)C)c(O)c3c(=O)c2c1CC=C(C)C`, the Activity is 91.4%.

The test system is the same in the next assay. Description: Antimycobacterial activity against Mycobacterium bovis BCG ATCC 35734 assessed as ATP leakage by measuring extracellular ATP at 0.5 times MIC measured at 9 hrs post dose by luciferase reporter gene assay. Format: functional, Mycobacterium tuberculosis variant bovis BCG.
For the molecule `COc1c(OCCCCN2CCOCC2)cc2oc3cc(OCCCCN4CCOCC4)c(CC=C(C)C)c(O)c3c(=O)c2c1CC=C(C)C`, the Activity amounted to 7.3%.

A further assay has the same test system. In words: Antimycobacterial activity against Mycobacterium bovis BCG ATCC 35734 assessed as ATP leakage by measuring extracellular ATP at 0.5 times MIC measured at 24 hrs post dose by luciferase reporter gene assay. The class given is functional, Mycobacterium tuberculosis variant bovis BCG.
In the case of `COc1c(OCCCCN2CCOCC2)cc2oc3cc(OCCCCN4CCOCC4)c(CC=C(C)C)c(O)c3c(=O)c2c1CC=C(C)C`, the Activity was determined as 4.8%.

The test system is the same in another assay. Description: Antimycobacterial activity against Mycobacterium bovis BCG ATCC 35734 assessed as ATP leakage by measuring intracellular ATP at 2 times MIC measured at 24 hrs post dose by luciferase reporter gene assay. The class given is functional, Mycobacterium tuberculosis variant bovis BCG.
Take `COc1c(OCCCCN2CCOCC2)cc2oc3cc(OCCCCN4CCOCC4)c(CC=C(C)C)c(O)c3c(=O)c2c1CC=C(C)C`: the Activity turned out to be 49.8%.

Another assay has the same test system. In words: Antimycobacterial activity against Mycobacterium bovis BCG ATCC 35734 assessed as ATP leakage by measuring intracellular ATP at 4 times MIC measured at 6 hrs post dose by luciferase reporter gene assay. Format: functional, Mycobacterium tuberculosis variant bovis BCG.
`COc1c(OCCCCN2CCOCC2)cc2oc3cc(OCCCCN4CCOCC4)c(CC=C(C)C)c(O)c3c(=O)c2c1CC=C(C)C`: the Activity is 37.2%.

For another assay the test system is unchanged. In words: Antimycobacterial activity against Mycobacterium bovis BCG ATCC 35734 assessed as ATP leakage by measuring extracellular ATP at 1 MIC measured immediatey after addition of compounds by luciferase reporter gene assay. Format: functional, Mycobacterium tuberculosis variant bovis BCG.
`COc1c(OCCCCN2CCOCC2)cc2oc3cc(OCCCCN4CCOCC4)c(CC=C(C)C)c(O)c3c(=O)c2c1CC=C(C)C`: the Activity amounted to 4.7%.

For a further assay the test system is unchanged. In words: Antimycobacterial activity against Mycobacterium bovis BCG ATCC 35734 assessed as ATP leakage by measuring intracellular ATP at 1 MIC measured at 6 hrs post dose by luciferase reporter gene assay. Format: functional, Mycobacterium tuberculosis variant bovis BCG.
As for `COc1c(OCCCCN2CCOCC2)cc2oc3cc(OCCCCN4CCOCC4)c(CC=C(C)C)c(O)c3c(=O)c2c1CC=C(C)C`, the Activity was 85.6%.

The test system is the same in another assay. In words: Antimycobacterial activity against Mycobacterium bovis BCG ATCC 35734 assessed as ATP leakage by measuring extracellular ATP at 2 times MIC measured immediatey after addition of compounds by luciferase reporter gene assay. The class given is functional, Mycobacterium tuberculosis variant bovis BCG.
Turning to `COc1c(OCCCCN2CCOCC2)cc2oc3cc(OCCCCN4CCOCC4)c(CC=C(C)C)c(O)c3c(=O)c2c1CC=C(C)C`, the Activity was determined as 8.1%.

Another assay has the same test system. Description: Antimycobacterial activity against Mycobacterium bovis BCG ATCC 35734 assessed as ATP leakage by measuring extracellular ATP at 4 times MIC measured at 9 hrs post dose by luciferase reporter gene assay. Format: functional, Mycobacterium tuberculosis variant bovis BCG.
For the molecule `COc1c(OCCCCN2CCOCC2)cc2oc3cc(OCCCCN4CCOCC4)c(CC=C(C)C)c(O)c3c(=O)c2c1CC=C(C)C`, the Activity is 58.4%.

The next assay has the same test system. In words: Antimycobacterial activity against Mycobacterium bovis BCG ATCC 35734 assessed as ATP leakage by measuring extracellular ATP at 2 times MIC measured at 6 hrs post dose by luciferase reporter gene assay. The class given is functional, Mycobacterium tuberculosis variant bovis BCG.
Consider `COc1c(OCCCCN2CCOCC2)cc2oc3cc(OCCCCN4CCOCC4)c(CC=C(C)C)c(O)c3c(=O)c2c1CC=C(C)C`, for which the Activity stood at 27.4%.

The next assay has the same test system. In words: Antimycobacterial activity against Mycobacterium bovis BCG ATCC 35734 assessed as ATP leakage by measuring intracellular ATP at 1 MIC measured at 9 hrs post dose by luciferase reporter gene assay. Format: functional, Mycobacterium tuberculosis variant bovis BCG.
On to `COc1c(OCCCCN2CCOCC2)cc2oc3cc(OCCCCN4CCOCC4)c(CC=C(C)C)c(O)c3c(=O)c2c1CC=C(C)C`, for which the Activity is given as 86.5%.

The test system is the same in the next assay. In words: Antimycobacterial activity against Mycobacterium bovis BCG ATCC 35734 assessed as ATP leakage by measuring extracellular ATP at 2 times MIC measured at 3 hrs post dose by luciferase reporter gene assay. Format: functional, Mycobacterium tuberculosis variant bovis BCG.
Consider `COc1c(OCCCCN2CCOCC2)cc2oc3cc(OCCCCN4CCOCC4)c(CC=C(C)C)c(O)c3c(=O)c2c1CC=C(C)C`, for which the Activity was determined as 20%.

For a further assay the test system is unchanged. Description: Antimycobacterial activity against Mycobacterium bovis BCG ATCC 35734 assessed as ATP leakage by measuring extracellular ATP at 1 MIC measured at 6 hrs post dose by luciferase reporter gene assay. Format: functional, Mycobacterium tuberculosis variant bovis BCG.
On to `COc1c(OCCCCN2CCOCC2)cc2oc3cc(OCCCCN4CCOCC4)c(CC=C(C)C)c(O)c3c(=O)c2c1CC=C(C)C`, for which the Activity came to 14.4%.

A further assay shares this test system. Description: Antimycobacterial activity against Mycobacterium bovis BCG ATCC 35734 assessed as ATP leakage by measuring extracellular ATP at 4 times MIC measured at 24 hrs post dose by luciferase reporter gene assay. Format: functional, Mycobacterium tuberculosis variant bovis BCG.
Consider `COc1c(OCCCCN2CCOCC2)cc2oc3cc(OCCCCN4CCOCC4)c(CC=C(C)C)c(O)c3c(=O)c2c1CC=C(C)C`, for which the Activity was found to be 68.5%.
